Laboratory results: patent US20220402883A1, “COMPOUNDS AND METHODS FOR MODULATING RNA FUNCTION” (Arrakis Therapeutics, Inc., priority 2016, published 2022)
Where a name gives a salt, the structure may show the parent alone.

System: RNA3WJ_0.0.0_5IB_3FAM (3WJ_0.0.0_5IB_3FAM RNA construct)
Assay: Thermal shift binding assay
Conditions: for Melt. Temp. with cmpd / Shift melt. Temp.: RNA sequence 3WJ_0.0.0_5IB_FAM; for Melt. Temp. with cmpd: melting temperature in presence of compound; for Shift melt. Temp.: with cmpd minus without cmpd; for Temp. Shift: 1 μM RNA, 8 μM compound, 10 mM CacoK pH 7.2, 30 mM NaCl
Description: Purpose: Test binding of compounds for RNA three way junction (for example, a construct of 38 nt). Thermal shift assay based on established fluorescence quenching assay utilizing FAM as fluorescence tag and Iowa Black as quencher. Tags were attached at the 3′ and 5′ end, respectively. Stable formation of 3WJ upon compound binding would lead to quenching of the FAM fluorescence due to close proximity of the Iowa Black tag. Thermal unfolding leads to increase of fluorescence emission. Assay readout: FAM (465-510 nm) Thermal Shift.
Assay sample buffer used: 10 mM CacoK pH 7.2, 30 mM NaCl. Buffer preparation in Dnase/Rnase Free distilled water (Gibco Life Technologies).
Dilute the RNA 1:10 (final 10 μM) in Assay Buffer.
Heat up the diluted RNA up to 90° C. for 5 min (sealed Eppendorf Tube).
Cool down the RNA probe slowly to RT.
Dilute the compounds to 800 μM in DMSO (Assay: 8 μM). […]
Pipet 20 μL Sample Solution into Roche, Light Cycler480 Multiwell Plate96, white, REF 04729692001.
Measure the 96 plate with the LightCycler480 (Channel: 480/510 nm; Temperature: 41-91° C.).
Analyse measurement-data with the MeltingCurveGenotyping Mode.
Settings: Acquisition mode: continuous; Ramp rate: 0.1° C./sec; Acquisition: 6° C.
Curves are fitted with raw and normalized data.
Melting curves analysis show melting temperature (Tm) of ˜51° C. Range of RNA concentrations was tested and assay window was determined (conc. range of 0.5-1 μM yields best results). The choice of buffer also affected the Tm. RNA constructs were tested under different buffer conditions (especially in presence of salt) in the thermal shift assay. […] CacoK with 30 mM salt at 1 μM RNA conc. was used to assess compound effects on 3WJ stability. […] These conditions were used for screening test compounds.

Compound	Melt. Temp. with cmpd	Shift melt. Temp.	Temp. Shift
CN(CCOCCN(C)C(=O)[C@@H]1C[C@H](N=[N+]=[N-])CN1C(=O)c1ccc2c(=O)oc(=O)[nH]c2c1)C(=O)CCC12c3cc(NC(=O)CCCCCCCN)ccc3C(c3ccc(NC(=O)CCCCCCCN)cc31)c1ccc(NC(=O)CCCCCCCN)cc12 [ARK000034, N,N′,N″-(9-(3-((2-(2-((2S,4S)-4-azido-1-(2,4-dioxo-1,4-dihydro-2H-benzo[d][1,3]oxazine-7-carbonyl)-N-methylpyrrolidine-2-carboxamido)ethoxy)ethyl)(methyl)amino)-3-oxopropyl)-9,10-dihydro-9,10-[1,2]benzenoanthracene-2,7,15-triyl)tris(8-aminooctanamide)]	60.2 °C	+0.3 °C	–
CN(CCOCCOCCNC(=O)CCC12c3cc(NC(=O)CCCCCCCN)ccc3C(c3ccc(NC(=O)CCCCCCCN)cc31)c1ccc(NC(=O)CCCCCCCN)cc12)C(=O)[C@@H]1C[C@H](N=[N+]=[N-])CN1C(=O)COc1ccc2c(=O)oc(=O)n(C)c2c1 [ARK000025, N,N′,N″-(9-(1-((2S,4S)-4-azido-1-(2-((1-methyl-2,4-dioxo-1,4-dihydro-2H-benzo[d][1,3]oxazin-7-yl)oxy)acetyl)pyrrolidin-2-yl)-2,11-dimethyl-1,12-dioxo-5,8-dioxa-2,11-diazatetradecan-14-yl)-9,10-dihydro-9,10-[1,2]benzenoanthracene-2,7,15-triyl)tris(8-aminooctanamide)]	50.4 °C	−10.2 °C	–
CN(CCOCCN(C)C(=O)[C@@H]1C[C@H](N=[N+]=[N-])CN1C(=O)CCc1ccc(S(=O)(=O)F)cc1)C(=O)CCC12c3cc(NC(=O)CCCCCCCN)ccc3C(c3ccc(NC(=O)CCCCCCCN)cc31)c1ccc(NC(=O)CCCCCCCN)cc12 [ARK000027]	83.4 °C	+23.7 °C	–
CC(C)(C)OC(=O)NCCCC[C@H](NC(=O)OC(C)(C)C)C(=O)Nc1ccc2c(c1)C1(CCC(=O)NCCOCCOCCN)c3cc(NC(=O)[C@H](CCCCNC(=O)OC(C)(C)C)NC(=O)OC(C)(C)C)ccc3C2c2ccc(NC(=O)[C@H](CCCCNC(=O)OC(C)(C)C)NC(=O)OC(C)(C)C)cc21 [ARK000022]	60.2 °C	+0.4 °C	–
CN(CCOCCOCCOCCNC(=O)CCC12c3cc(NC(=O)CCCCCCCN)ccc3C(c3ccc(NC(=O)CCCCCCCN)cc31)c1ccc(NC(=O)CCCCCCCN)cc12)C(=O)[C@@H]1C[C@H](N=[N+]=[N-])CN1C(=O)c1ccc(S(=O)(=O)F)cc1 [ARK000032, 4-((2S,4S)-4-azido-2-(methyl(12-methyl-13-oxo-15-(2,7,15-tris(8-aminooctanamido)-9,10-[1,2]benzenoanthracen-9(10H)-yl)-3,6,9-trioxa-12-azapentadecyl)carbamoyl)pyrrolidine-1-carbonyl)benzenesulfonyl fluoride]	75.1 °C	+15.0 °C	+15.0 °C
CN(CCOCCN(C)C(=O)[C@@H]1C[C@H](N=[N+]=[N-])CN1C(=O)c1ccc(S(=O)(=O)F)cc1)C(=O)CCC12c3cc(NC(=O)CCCCCCCN)ccc3C(c3ccc(NC(=O)CCCCCCCN)cc31)c1ccc(NC(=O)CCCCCCCN)cc12 [ARK000030]	64.8 °C	+4.8 °C	–
NCCCC[C@@H](N)C(=O)Nc1ccc2c(c1)C1c3cc(NC(=O)[C@H](N)CCCCN)ccc3C2c2ccc(NC(=O)[C@H](N)CCCCN)cc21 [ARK000016, (2R,2′R,2″R)—N,N′,N″-(9,10-dihydro-9,10-[1,2]benzenoanthracene-2,7,15-triyl)tris(2,6-diaminohexanamide)]	83.8 °C	+21.3 °C	–
N[C@H](Cc1c[nH]cn1)C(=O)Nc1ccc2c(c1)C1c3cc(NC(=O)[C@H](N)Cc4c[nH]cn4)ccc3C2c2ccc(NC(=O)[C@H](N)Cc3cnc[nH]3)cc21 [ARK000018, (2R,2′R,2″R)—N,N′,N″-(9,10-dihydro-9,10-[1,2]benzenoanthracene-2,7,15-triyl)tris(2-amino-3-(1H-imidazol-4-yl)propanamide) hydrochloride]	60.8 °C	+0.2 °C	–
CC(C)(C)OC(=O)NCCCC[C@H](NC(=O)OC(C)(C)C)C(=O)Nc1ccc2c(c1)C1(CCC(=O)NCCOCCOCCN)c3cc(NC(=O)[C@@H](CCCCNC(=O)OC(C)(C)C)NC(=O)OC(C)(C)C)ccc3C2c2ccc(NC(=O)[C@@H](CCCCNC(=O)OC(C)(C)C)NC(=O)OC(C)(C)C)cc21 [ARK000023]	60.7 °C	+0.6 °C	–
CN(CCOCCN(C)C(=O)[C@@H]1C[C@H](N=[N+]=[N-])CN1C(=O)c1ccc2c(=O)oc(=O)n(C)c2c1)C(=O)CCC12c3cc(NC(=O)CCCCCCCN)ccc3C(c3ccc(NC(=O)CCCCCCCN)cc31)c1ccc(NC(=O)CCCCCCCN)cc12 [ARK000033, N,N′,N″-(9-(3-((2-(2-((2S,4S)-4-azido-N-methyl-1-(1-methyl-2,4-dioxo-1,4-dihydro-2H-benzo[d][1,3]oxazine-7-carbonyl)pyrrolidine-2-carboxamido)ethoxy)ethyl)(methyl)amino)-3-oxopropyl)-9,10-dihydro-9,10-[1,2]benzenoanthracene-2,7,15-triyl)tris(8-aminooctanamide)]	62.4 °C	+0.9 °C	–
CCOC(=O)c1ccccc1NC(=O)N1CCCN(Cc2csc(C)n2)CC1 [ARK000021]	40.5 °C	−19.0 °C	–
N[C@@H](Cc1c[nH]cn1)C(=O)Nc1ccc2c(c1)C1c3cc(NC(=O)[C@@H](N)Cc4c[nH]cn4)ccc3C2c2ccc(NC(=O)[C@@H](N)Cc3cnc[nH]3)cc21 [ARK000017, (2S,2′S,2″S)—N,N′,N″-(9,10-dihydro-9,10-[1,2]benzenoanthracene-2,7,15-triyl)tris(2-amino-3-(1H-imidazol-4-yl)propanamide)hydrochloride]	60.6 °C	−0.6 °C	–
CC1(C)CC(Oc2ccc(-c3ccc(-c4cn[nH]c4)cc3O)nn2)CC(C)(C)N1 [ARK000010]	61.4 °C	−0.2 °C	–
CN(CCOCCN(C)C(=O)[C@@H]1C[C@H](N=[N+]=[N-])CN1C(=O)COc1ccc2c(=O)oc(=O)n(C)c2c1)C(=O)CCC12c3cc(NC(=O)CCCCCCCN)ccc3C(c3ccc(NC(=O)CCCCCCCN)cc31)c1ccc(NC(=O)CCCCCCCN)cc12 [ARK000024, N,N′,N″-(9-(3-((2-(2-((2S,4S)-4-azido-N-methyl-1-(2-((1-methyl-2,4-dioxo-1,4-dihydro-2H-benzo[d][1,3]oxazin-7-yl)oxy)acetyl)pyrrolidine-2-carboxamido)ethoxy)ethyl)(methyl)amino)-3-oxopropyl)-9,10-dihydro-9,10-[1,2]benzenoanthracene-2,7,15-triyl)tris(8-aminooctanamide)]	60.7 °C	+0.3 °C	–
CN(CCOCCOCCNC(=O)CCC12c3cc(NC(=O)CCCCCCCN)ccc3C(c3ccc(NC(=O)CCCCCCCN)cc31)c1ccc(NC(=O)CCCCCCCN)cc12)C(=O)[C@@H]1C[C@H](N=[N+]=[N-])CN1C(=O)c1ccc(S(=O)(=O)F)cc1 [ARK000031, N,N′,N″-(9-(1-((2S,4S)-4-azido-1-(3-(4-(fluorosulfonyl)benzoyl)pyrrolidin-2-yl)-2,11-dimethyl-1,12-dioxo-5,8-dioxa-2,11-diazatetradecan-14-yl)-9,10-dihydro-9,10-[1,2]benzenoanthracene-2,7,15-triyl)tris(azanediyl))tris(8-aminooctanamide)]	84.1 °C	+24.1 °C	+24.1 °C
O=C(O)CCC12C3=C(CCNC3)C(c3ccccc31)c1ccccc12 [ARK000019]	60.0 °C	−0.3 °C	–
CN(CCOCCOCCOCCNC(=O)CCC12c3cc(NC(=O)CCCCCCCN)ccc3C(c3ccc(NC(=O)CCCCCCCN)cc31)c1ccc(NC(=O)CCCCCCCN)cc12)C(=O)[C@@H]1C[C@H](N=[N+]=[N-])CN1C(=O)COc1ccc2c(=O)oc(=O)n(C)c2c1 [ARK000026, N,N′,N″-(9-(1-((2S,4S)-4-azido-1-(2-((1-methyl-2,4-dioxo-1,4-dihydro-2H-benzo[d][1,3]oxazin-7-yl)oxy)acetyl)pyrrolidin-2-yl)-2,14-dimethyl-1,15-dioxo-5,8,11-trioxa-2,14-diazaheptadecan-17-yl)-9,10-dihydro-9,10-[1,2]benzenoanthracene-2,7,15-triyl)tris(8-aminooctanamide)]	60.9 °C	−1.2 °C	–
O=C(O)CCC12C3=C(CNCC3)C(c3ccccc31)c1ccccc12 [ARK000020]	60.2 °C	+0.3 °C	–
CN(c1ccc(-c2ccc(-c3cn[nH]c3)cc2O)nn1)C1CC(C)(C)NC(C)(C)C1 [ARK000011]	60.3 °C	−1.4 °C	–
